Assay [1] addresses T1, human recombinant histamine H1 receptor (Homo sapiens, UniProt P35367).
T1 construct: expressed in transfected cells; host or cells: CHO cells
Briefly: Histamine H1 radioligand binding ([3H]Pyrilamine). To be noted: 1 μM; read-out: Binding data (Percentage Inhibition) Histamine Binding (1 μM) H1. Summed up: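 Binding to the human recombinant histamine H1 receptor, expressed in CHO cells, was measured in a modified Tris-HCl buffer (50 mM Tris-HCl, pH 7.4, 2 mM MgCl2, 100 mM NaCl, 250 mM Sucrose). Compounds were incubated with 1.2 nM [3H]Pyrilamine for 180 minutes at 25° C, with 1 μM pyrilamine defining non-specific binding. After filtration and washing, filter counts gave percent inhibition of specific binding.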

For assay [2], the system named is rat central imidazoline I2 receptor. Briefly: Central imidazoline I2 radioligand binding ([3H]Idazoxan). To be noted: inhibition of specific [3H]Idazoxan binding. How it is done:
To evaluate in radioligand binding assays the activity of compounds of the invention, rat central imidazoline I2 receptor obtained from Wistar Rat cerebral cortex (Brown, C. M. et al., Br. J. Pharmacol. 99:803, 1990) in a modified Tris-HCl buffer (50 mM Tris-HCl buffer, pH 7.4, 0.5 mM EDTA) was used. Compounds of the invention were incubated with 2 nM [^3H]Idazoxan for 30 minutes at 25° C. Non-specific binding was estimated in the presence of 1 μM Idazoxan. Receptor proteins were filtered and washed, the filters were then counted to determine [^3H]Idazoxan specifically bound. Compounds were screened at 1 μM or lower, using 1% DMSO as vehicle. Compounds of the invention were tested in this biochemical assay and percent inhibition of specific binding was determined.

The target in assay [3] is T2, human recombinant serotonin (5-Hydroxytryptamine) 5-HT7 receptor (Homo sapiens, UniProt P34969).
T2 construct: expressed in transfected cells; host or cells: CHO cells
Briefly: Serotonin 5-HT7 radioligand binding ([3H]LSD). To be noted: 2 h; read-out: Percent Inhibition of ligand binding Serotonin (1 μM ligand concentration) 5-HT7. Summed up:
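CHO-expressed human 5-HT7 receptor with 5.5 nM [3H]LSD in 50 mM Tris-HCl pH 7.4, 10 mM MgCl2, 0.5 mM EDTA, 2 h at 25 °C; nonspecific binding defined with serotonin. Filtration and counting. Compounds at ≤1 μM, 1% DMSO; % inhibition of specific binding.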

Assay [4] addresses T3, human recombinant serotonin (5-Hydroxytryptamine) 5-HT2A receptor (Homo sapiens, UniProt P28223).
T3 construct: expressed in transfected cells; host or cells: CHO-K1 cells
Briefly: Serotonin 5-HT2A radioligand binding ([3H]Ketanserin). To be noted: 1 h; read-out: Percent Inhibition of ligand binding Serotonin (1 μM ligand concentration) 5-HT2A. In outline: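 Membranes from CHO-K1 cells expressing the receptor, in 50 mM Tris-HCl pH 7.4, incubated 60 min at 25° C with 0.5 nM [3H]Ketanserin; 1 μM Mianserin defines non-specific binding. Filtration and counting; values are % inhibition of specific binding at 1 μM or lower, 1% DMSO.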

T1 sequence (P35367 whole entry): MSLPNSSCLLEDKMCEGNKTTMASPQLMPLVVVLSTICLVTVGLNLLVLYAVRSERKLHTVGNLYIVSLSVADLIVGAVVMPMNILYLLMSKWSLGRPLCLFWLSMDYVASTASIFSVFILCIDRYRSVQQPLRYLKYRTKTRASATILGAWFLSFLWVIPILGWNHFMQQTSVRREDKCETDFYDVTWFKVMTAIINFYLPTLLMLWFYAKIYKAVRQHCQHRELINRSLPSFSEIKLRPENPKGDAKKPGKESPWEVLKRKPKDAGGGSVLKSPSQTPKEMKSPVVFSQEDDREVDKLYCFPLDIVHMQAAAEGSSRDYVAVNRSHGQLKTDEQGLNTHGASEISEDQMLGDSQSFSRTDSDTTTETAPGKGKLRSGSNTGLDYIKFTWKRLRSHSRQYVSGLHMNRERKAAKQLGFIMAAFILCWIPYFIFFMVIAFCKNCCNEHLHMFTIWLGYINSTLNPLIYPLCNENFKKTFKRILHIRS
T3 sequence (P28223 whole entry): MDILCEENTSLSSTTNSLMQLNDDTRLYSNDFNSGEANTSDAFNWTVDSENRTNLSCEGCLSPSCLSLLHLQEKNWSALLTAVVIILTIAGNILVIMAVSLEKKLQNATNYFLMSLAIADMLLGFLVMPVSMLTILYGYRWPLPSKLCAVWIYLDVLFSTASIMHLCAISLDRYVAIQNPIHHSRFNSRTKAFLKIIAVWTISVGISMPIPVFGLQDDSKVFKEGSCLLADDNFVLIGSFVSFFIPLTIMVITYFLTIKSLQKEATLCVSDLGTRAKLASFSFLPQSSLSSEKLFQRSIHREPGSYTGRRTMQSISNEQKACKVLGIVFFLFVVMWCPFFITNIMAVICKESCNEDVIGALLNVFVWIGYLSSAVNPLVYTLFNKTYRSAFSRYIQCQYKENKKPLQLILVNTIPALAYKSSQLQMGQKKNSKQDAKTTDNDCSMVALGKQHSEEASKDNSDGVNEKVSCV
T2 sequence (P34969 whole entry): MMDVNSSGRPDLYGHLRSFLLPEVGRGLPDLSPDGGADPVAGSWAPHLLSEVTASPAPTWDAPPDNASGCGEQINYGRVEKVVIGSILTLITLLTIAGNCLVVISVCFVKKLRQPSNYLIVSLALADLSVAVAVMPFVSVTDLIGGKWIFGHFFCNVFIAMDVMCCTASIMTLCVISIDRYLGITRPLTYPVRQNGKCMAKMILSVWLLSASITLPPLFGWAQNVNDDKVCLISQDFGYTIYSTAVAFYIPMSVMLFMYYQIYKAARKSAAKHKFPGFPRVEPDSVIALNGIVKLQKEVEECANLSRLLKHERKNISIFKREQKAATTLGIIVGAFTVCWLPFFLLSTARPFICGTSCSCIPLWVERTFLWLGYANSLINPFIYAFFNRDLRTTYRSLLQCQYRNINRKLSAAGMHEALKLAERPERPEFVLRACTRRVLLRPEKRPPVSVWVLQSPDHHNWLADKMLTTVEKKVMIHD

`Cc1ccc2c(c1)c1c(n2CCc2ccc(C)nc2)CN(C)CC1` [Compound 1, 2,3,4,9-tetrahydro-2,6-dimethyl-9-(2-(6-methylpyridin-3-yl)ethyl)-1H-pyrido[3,4-b]indole]: the inhibition at 1 µM in assay [1] turned out to be 77%. Further, the “Binding data (Percentage Inhibition) Imidazoline I2 Central (1 μM)” value in assay [2] stood at 40%.

For `Cc1ccc2c(c1)c1c(n2CCC2CCCCC2)CN(C)CC1` [Compound 2, 9-(2-cyclohexylethyl)-2,3,4,9-tetrahydro-2,6-dimethyl-1H-pyrido[3,4-b]indole], in assay [1], the inhibition at 1 µM came out at 95%. Further, the “Binding data (Percentage Inhibition) Imidazoline I2 Central (1 μM)” value in assay [2] is reported as 18%.

Take `CN1CCc2c(n(CCc3ccc(F)cc3)c3ccc(Cl)cc23)C1` [Compound 3, 9-(4-fluorophenethyl)-6-chloro-2,3,4,9-tetrahydro-2-methyl-1H-pyrido[3,4-b]indole]: the inhibition at 1 µM in assay [1] stood at 83%. The “Binding data (Percentage Inhibition) Imidazoline I2 Central (1 μM)” value in assay [2] stood at 20%.

For the molecule `CC1CCN(C(=O)Cn2c3c(c4cc(Cl)ccc42)CCN(C)C3)CC1` [Compound 38, 2-(6-chloro-1,2,3,4-tetrahydro-2-methylpyrido[3,4-b]indol-9-yl)-1-(4-methylpiperidin-1-vyl)ethanone], the inhibition at 1 µM in assay [1] was determined as 16%. Also, in assay [2], the “Binding data (Percentage Inhibition) Imidazoline I2 Central (1 μM)” value came to 33%.

As for `C#CCn1c2c(c3cc(Cl)ccc31)CCN(C)C2` [Compound 125, 6-chloro-2,3,4,9-tetrahydro-2-methyl-9-(prop-2-yn1)-1H-pyrido[3,4-b]indole], the inhibition at 1 µM in assay [1] was 83%. Moreover, the “Binding data (Percentage Inhibition) Imidazoline I2 Central (1 μM)” value in assay [2] is 60%.

Regarding `C/C(=C\n1c2c(c3cc(Cl)ccc31)CCN(C)C2C)c1ccccc1F` (stereo not shown) [Compound 168], the inhibition at 1 µM in assay [1] was 85%; in assay [3], 84%; in assay [4], 94%.

(Values after patent US9260429B2, “Pyrido[3,4-B]indoles and methods of use” (Medivation Technologies, Inc., priority 2008, dated 2016).)
